Laboratory results published in patent publication US20010041716A1, “Compositions and methods for locally treating inflammatory diseases” (priority 1999, published 2001).
In brackets after ≈: the same amount, converted by molar mass. Where two headings read alike, the source gives them in different places. Marks after values point to notes of the source that are not given here.

Key:
[1] = for Lag time TL = SD / Permeability coefficient P ± SD × 10^−3: pH 6
Description: Skin Preparation and Permeation: The human cadaver skin used in the permeation studies was obtained from the Anatomical Donation Program at the University of Michigan. Vertical Franz diffusion cells with a 4 ml capacity receptor compartment and a 0.8 cm^2 diffusion area were used in the permeation studies. The epidermal layer of the skin was mounted carefully onto the lower half of the cells of the difflusion apparatus with the stratum corneum facing up. The receptor compartments were filled with isotonic phosphate buffer (pH 6.4). The temperature of the cell system was maintained at 32° C. by circulating water from a constant temperature water bath through the jacket of the lower compartment of each cell assembly. To begin an experiment, the donor compartment was charged with 300 μl of fresh prepared saturated solution of the drug and covered immediately with Parafilm to prevent any significant evaporation of volatile components of the applied medium during the absorption experiment. At predetermined times, samples were taken and were directly assayed by HPLC to determine the drug concentration of each. Care was taken to maintain skin conditions.
The permeability coefficient for a given run was calculated from Fick's law of diffuision: [formula]
dC/dt is the steady-state slope of a plot of the amount of substance which had penetrated the skin against time in terms of jig/h. It was determined by taking the ratio of the total amount permeated in an interval of time to the length of the time interval.
A is the difflusional area, which was 0.8 cm^2.
ΔC is the concentration differential existing across the membrane. This was effectively equal to the saturation concentration in the donor phase (μg/ml) as, through total exchange sampling, a near zero receiver concentration (sink condition) was closely approximated. AC is, in effect, the thermodynamic force driving mass transfer. The maximum driving force is seen at the saturation solubility (excluding supersaturation).
VR is the volume of the receiver compartment (4 ml).
The permeation parameters (flux, J; lag time, TL and permeability coefficient, P) of thalidomide and its N-alkyl analogs from their saturated aqueous solutions (pH 6.0) and an ethanol/water/octanol vehicle are summarized in Table 4. The permeation data were plotted as the cumulative amount of drug penetrated through skin as a function of time. The steady-state flux was determined from the slope of the linear portion of the cumulative amount-time plot. The lag time (TL) was determined by extrapolating the linear portion of the curve to its intersection with the time axis. […] A bar plot of the mean steady-state flux and standard deviations (SD) for thalidomide and its N-alkyl analogs from water can be seen in FIG. 5. […] Typical cumulative amount permeated-time profiles for thalidomide and its N-alkyl analogs from the ethanol/water/octanol (Formulation C) vehicle are shown in FIG. 6.

[2] = 25° C.
[3] = Description: Differential Thermal Analysis: The heat of fusion (ΔHf) and the entropy of fusion (ΔSf) of thalidomide and its N-alkyl analogs were determined with a Perkin-Elmer DSC7 Differential Scanning Calorimeter (DSC), which was calibrated with an indium standard.
Using this surmise, the solubility parameters for all the solutes were calculated. […] In each case the solutions are considered ideal at the peak of their parabolas.

[4] = n-octanol / phosphate buffer (pH 6.4)
TNFα = settings: PBMCs stimulated in vitro with LPS; previous studies; cited from earlier work

CN1C(=O)CCC(N2C(=O)c3ccccc3C2=O)C1=O (stereo not shown) [N-Methyl Thalidomide, N-methyl thalidomide]
Maximum steady-state flux [1]: 11.47 μg/cm^2/h | Lag time TL = SD [1]: 2.8 ± 0.5 h | Permeability coefficient P ± SD × 10^−3 [1]: 1.17 ± 0.22 × 10^−3 (cm/h) | Solubility, Hexane ± SD [2]: 90 ± 0 µg/mL (≈ 331 µM) | Solubility, Water (pH 6.4) ± SD [2]: 275.9 ± 6.39 μg/ml | Solubility, Water (pH 6.4) ± SD ([2]; listed as N-methyl thalidomide): 276 μg/ml | Activity of solid phase a2^s, ΔCp = 0 [3]: 1.03 × 10^−1 | Activity of solid phase a2^s, ΔCp = ΔSp [3]: 1.54 × 10^−1 | Ln X2,ideal, ΔCp = 0 [3]: −2.27 | Ln X2,ideal, ΔCp = ΔSr [3]: −1.87 | Solubility parameter δ2 (Hexane), ΔCp = 0 [3]: 12.2 (cal/cm^3)^½ | Solubility parameter δ2 (Hexane), ΔCp = ΔSr [3]: 12.3 (cal/cm^3)^½ | Koct ± SD (octanol/water partition coefficient) [4]: 14.1 ± 1.05

CCCCCN1C(=O)CCC(N2C(=O)c3ccccc3C2=O)C1=O (stereo not shown) [N-Pentyl Thalidomide, N-pentyl thalidomide]
Lag time TL = SD [1]: 3 ± 1.6 h | Permeability coefficient P ± SD × 10^−3 [1]: 19.68 ± 6.31 × 10^−3 (cm/h) | Solubility, Hexane ± SD [2]: 220 ± 10 µg/mL (≈ 670 µM) | Solubility, Water (pH 6.4) ± SD [2]: 57.3 ± 1.46 μg/ml | Activity of solid phase a2^s, ΔCp = 0 [3]: 1.29 × 10^−1 | Activity of solid phase a2^s, ΔCp = ΔSp [3]: 1.64 × 10^−1 | Ln X2,ideal, ΔCp = 0 [3]: −2.05 | Ln X2,ideal, ΔCp = ΔSr [3]: −1.81 | Solubility parameter δ2 (Hexane), ΔCp = 0 [3]: 11.2 (cal/cm^3)^½ | Solubility parameter δ2 (Hexane), ΔCp = ΔSr [3]: 11.2 (cal/cm^3)^½ | Koct ± SD (octanol/water partition coefficient) [4]: 129 ± 1.05

O=C1CCC(N2C(=O)c3ccccc3C2=O)C(=O)N1 (stereo not shown) [Thalidomide, a-phthalimidoglutarimide, reference compound]
Inhibition of TNFα production (TNFα): partially inhibit TNFα production | Lag time TL = SD [1]: 2.2 ± 1.4 h | Permeability coefficient P ± SD × 10^−3 [1]: <0.16 ± 0.00^b) × 10^−3 (cm/h) | Solubility, Hexane ± SD [2]: 0.1 ± 0 µg/mL (≈ 0.387 µM) | Solubility, Water (pH 6.4) ± SD [2]: 52.1 ± 1.49 μg/ml | Solubility, Water (pH 6.4) ± SD ([2]; listed as thalidomide): 52 μg/ml | Activity of solid phase a2^s, ΔCp = 0 [3]: 1.29 × | Activity of solid phase a2^s, ΔCp = ΔSp [3]: 8.07 × | Ln X2,ideal, ΔCp = 0 [3]: −6.65 | Ln X2,ideal, ΔCp = ΔSr [3]: −4.82 | Solubility parameter δ2 (Hexane), ΔCp = 0 [3]: 13.2 (cal/cm^3)^½ | Solubility parameter δ2 (Hexane), ΔCp = ΔSr [3]: 13.7 (cal/cm^3)^½ | Koct ± SD (octanol/water partition coefficient) [4]: 3.09 ± 1.03
